In patent US11179663B1, “Polyurethane-based materials” (Aviro LLC, priority 2021, dated 2021):

Tests used:
COVID-19 [1] = experiment: coronavirus deactivation test after attachment to the surfaces, qPCR for genes indicative of COVID-19 activity; conditions: FIG. 2; compared among the antiviral coatings
COVID-19 [2] = experiment: coronavirus capture (attachment) test on coated surfaces, crystal violet stain read by spectrophotometer; conditions: FIG. 1; virus capture by coated surfaces

| SMILES | potential to deactivate captured virus (COVID-19 [1]) | SARS-Cov2 capture (COVID-19 [2]) |
| --- | --- | --- |
| CCCCCCCCCCCCCCCCCC[N+](C)(C)CCC[Si](OC)(OC)OC.[Cl-] [DMS, Dimethyloctadecyl[3-(trimethoxysilyl)propyl]ammonium chloride] | highest potential to deactivate |  |
| CCCCCCCCCCCCCCCC[n+]1ccccc1 [CPC, Cetyl pyridinium chloride] |  | roughly 95% |
